These results are taken from ChEMBL document CHEMBL4041540, “In silico selection and cell-based characterization of selective and bioactive compounds for androgen-dependent prostate cancer cell” (Bioorg Med Chem Lett, 2017).

The target of data set [1] is T1, Androgen receptor (Homo sapiens) (UniProt P10275).
T1 sequence (whole entry): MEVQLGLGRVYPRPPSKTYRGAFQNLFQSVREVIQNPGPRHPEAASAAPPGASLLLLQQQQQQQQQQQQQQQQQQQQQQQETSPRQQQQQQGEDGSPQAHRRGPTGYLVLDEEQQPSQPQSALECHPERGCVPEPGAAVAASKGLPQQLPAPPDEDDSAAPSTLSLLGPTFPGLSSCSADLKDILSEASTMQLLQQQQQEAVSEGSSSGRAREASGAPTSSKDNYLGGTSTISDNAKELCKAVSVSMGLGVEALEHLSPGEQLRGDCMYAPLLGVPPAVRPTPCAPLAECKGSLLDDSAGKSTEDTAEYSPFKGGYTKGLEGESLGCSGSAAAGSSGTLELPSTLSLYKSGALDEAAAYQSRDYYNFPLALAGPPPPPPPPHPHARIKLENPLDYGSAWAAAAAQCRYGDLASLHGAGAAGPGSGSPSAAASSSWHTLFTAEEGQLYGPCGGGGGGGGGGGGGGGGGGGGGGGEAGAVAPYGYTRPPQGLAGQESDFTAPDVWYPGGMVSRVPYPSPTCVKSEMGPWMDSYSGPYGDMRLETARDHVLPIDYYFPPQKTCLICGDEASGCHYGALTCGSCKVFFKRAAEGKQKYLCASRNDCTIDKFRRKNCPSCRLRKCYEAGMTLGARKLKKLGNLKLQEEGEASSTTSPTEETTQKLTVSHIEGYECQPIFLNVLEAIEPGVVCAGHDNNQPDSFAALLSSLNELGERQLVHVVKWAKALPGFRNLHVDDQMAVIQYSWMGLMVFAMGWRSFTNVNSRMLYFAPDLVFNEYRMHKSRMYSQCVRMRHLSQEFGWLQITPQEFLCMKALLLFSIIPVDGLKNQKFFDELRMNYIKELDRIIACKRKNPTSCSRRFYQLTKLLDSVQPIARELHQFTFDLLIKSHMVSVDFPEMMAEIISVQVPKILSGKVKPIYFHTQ
As to the kind of experiment: Inhibition of AR signaling pathway in testosterone-stimulated human LNCAP cells assessed as cell growth inhibition at 100 uM after 6 days by MTT assay relative to control. (In general: Tetrazolium dyes change colour on reduction, which living cells bring about.)

For data set [2], the system named is LNCaP. Nature of the data set: Growth inhibition of human LNCAP cells at 100 uM after 72 hrs by MTT assay relative to control. The data set is classed as functional. As to conditions: read-out: GI.
Data set [3] has as its system PC-3. As to the kind of experiment: Growth inhibition of human PC3 cells at 100 uM after 72 hrs by MTT assay relative to control. The data set is classed as functional. Particulars: PC-3, 72 h, read-out: GI.
In data set [4] the test system is DU-145. Nature of the data set: Growth inhibition of human DU145 cells at 100 uM after 72 hrs by MTT assay relative to control. The data set is classed as functional. As to conditions: DU-145, 72 h, read-out: GI.
Data set [5] is described as follows: Growth inhibition of Balb/c mouse 3T3 clone A31 cells at 250 uM after 72 hrs by MTT assay relative to control. The data set is classed as cell-based. As to conditions: Balb/c 3T3 clone A31 cells, read-out: GI.
Data set [6] can be described thus: Selectivity index, ratio of GI50 for Balb/c mouse 3T3 clone A31 cells to GI50 for AR signaling pathway in testosterone-stimulated human LNCAP cells assessed as cell growth inhibition.
The test system of data set [7] is LNCaP. As to the kind of experiment: Cell cycle arrest in testosterone-stimulated human LNCAP cells assessed as G0 phase accumulation at 8 uM after 3 days (reference value: 3.9%). The data set is classed as functional.
For data set [8], the system named is LNCaP. Nature of the data set: Cell cycle arrest in testosterone-stimulated human LNCAP cells assessed as G1 phase accumulation at 8 uM after 3 days (reference value: 73.8%). The data set is classed as functional.
The test system of data set [9] is LNCaP. As to the kind of experiment: Cell cycle arrest in testosterone-stimulated human LNCAP cells assessed as S phase accumulation at 8 uM after 3 days (reference value: 14.1%). The data set is classed as functional.
For data set [10], the system named is LNCaP. Nature of the data set: Cell cycle arrest in testosterone-stimulated human LNCAP cells assessed as G2/M phase accumulation at 8 uM after 3 days (reference value: 8.2%). The data set is classed as functional.
The test system of data set [11] is LNCaP. Nature of the data set: Cell cycle arrest in testosterone-stimulated human LNCAP cells assessed as G0 phase accumulation at 8 uM after 5 days (reference value: 8.2%). The data set is classed as functional.
Data set [12] has as its system LNCaP. Nature of the data set: Cell cycle arrest in testosterone-stimulated human LNCAP cells assessed as G1 phase accumulation at 8 uM after 5 days (reference value: 63.4%). The data set is classed as functional.
For data set [13], the system named is LNCaP. As to the kind of experiment: Cell cycle arrest in testosterone-stimulated human LNCAP cells assessed as S phase accumulation at 8 uM after 5 days (reference value: 15.1%). The data set is classed as functional.
In data set [14] the test system is LNCaP. Nature of the data set: Cell cycle arrest in testosterone-stimulated human LNCAP cells assessed as G2/M phase accumulation at 8 uM after 5 days (reference value: 13.3%). The data set is classed as functional.
Data set [15] concerns the target T1, Androgen receptor (Homo sapiens).
Description: Inhibition of AR signaling pathway in testosterone-stimulated human LNCAP cells assessed as cell growth inhibition after 6 days by MTT assay
Data set [16] shares this target. The source holds these as a separate data set.
Description: Inhibition of AR signaling pathway in testosterone-stimulated human LNCAP cells assessed as cell growth inhibition by flow cytometry
Data set [17] can be described thus: Growth inhibition of Balb/c mouse 3T3 clone A31 cells after 72 hrs by MTT assay. The data set is classed as cell-based. As to conditions: Balb/c 3T3 clone A31 cells.

Active and inactive are the calls of the source. The calls are words filed in the database; no cut-off is given here. Bounds are passed on as bounds.

As for `CC(C(=O)Nc1ccc(C#N)cc1)N1CCN(c2ccc(O)cc2)CC1` (stereo unspecified), the inhibition result in [1] was “inactive”. Moreover, the inhibition of growth at 100 µM in data set [2], in data set [3] and in data set [4] was no more than 50% each time.

As for `O=C(CSc1ncnc2c1[nH]c1ccccc12)Nc1ccc(F)cc1`, the inhibition entry in data set [1] was “inactive”. In addition, the inhibition of growth at 100 µM in [2], in [3] and in data set [4] was no more than 50% each time.

Turning to `N#Cc1ccc(N2CCN(C(=O)c3ccc(=O)[nH]c3)CC2)c(F)c1`, the inhibition entry in [1] is “inactive”. For the same molecule, the inhibition of growth at 100 µM in data set [2], in data set [3] and in data set [4] was no more than 50% in each case.

For orientation: GI50 means the concentration that inhibits growth by half. A high value points to less potent growth inhibition. Consider `Cc1ccc2[nH]c3c(SCC(=O)Nc4cccc(C#N)c4)ncnc3c2c1`, for which the inhibition entry in [1] is “Active”. The inhibition of growth at 100 µM in [2], in data set [3] and in [4] was no more than 50% each time. For the same molecule, in data set [5], the inhibition at 72 h, 250 µM worked out at 20%. The RatioGI50 in data set [6] was greater than 11. In addition, the Activity in [7] is listed as 1.9%; in data set [8] it was 64.6%; in data set [9], 18.4%; in [10], 15.1%; in data set [11], 6.3%; in [12] it was 68.7%. Also, the Activity turned out to be 15.7% in [13] and 9.3% in data set [14]. The GI50 was determined as 22.4 µM in data set [15] and 22.6 µM in [16].

Take `N#Cc1ccc(NC(=O)COC(=O)Cc2ccc(Cl)c(Cl)c2)cc1`: the inhibition result in [1] is “inactive”. Also, the inhibition of growth at 100 µM in [2], in data set [3] and in data set [4] was no more than 50% in each case.

On to `O=C(CSc1ncnc2c1[nH]c1ccccc12)Nc1cccc(F)c1`, for which, in data set [1], the inhibition result is “inactive”. Besides, the inhibition of growth at 100 µM in data set [2], in data set [3] and in [4] was no more than 50% in each case.

Take `N#Cc1ccc(CN2CCN(C(=O)C3CCCC3)CC2)c(F)c1`: the inhibition entry in data set [1] is “inactive”. Also, the inhibition of growth at 100 µM in data set [2], in data set [3] and in data set [4] was no more than 50% each time.

`N#Cc1ccc(NC(=O)COC(=O)Cc2cccs2)cc1Cl`: the inhibition result in data set [1] is “Active”. In addition, the inhibition of growth at 100 µM in data set [2], in [3] and in [4] was no more than 50% throughout.

As to `N#Cc1ccc(NC(=O)CSc2nc3ccc([N+](=O)[O-])cc3s2)cc1`, in data set [1], the inhibition result was “inactive”. For the same molecule, the inhibition of growth at 100 µM in [2], in data set [3] and in [4] was no more than 50% each time.

As for `N#Cc1ccc(CN2CCN(C(=O)c3ccc(F)c(F)c3)CC2)cc1`, the inhibition entry in data set [1] was “inactive”. Moreover, the inhibition of growth at 100 µM in data set [2], in data set [3] and in data set [4] was no more than 50% throughout.

In the case of `CC1CCCN(C(=O)C2CCN(c3ccc(C#N)cc3F)CC2)C1` (stereo unspecified), the inhibition result in [1] was “inactive”. Further, the inhibition of growth at 100 µM in data set [2], in data set [3] and in data set [4] was no more than 50% throughout.

Consider `CC(OC(=O)Cc1cc2c(s1)CCC2)C(=O)Nc1ccc(C#N)cc1` (stereo unspecified), for which the inhibition result in [1] was “inactive”. Moreover, the inhibition of growth at 100 µM in [2], in data set [3] and in data set [4] was no more than 50% each time.

In the case of `N#Cc1cc(F)c(N2CCN(C(=O)c3ccsc3)CC2)c(F)c1`, the inhibition entry in [1] was “inactive”. Further, the inhibition of growth at 100 µM in [2], in [3] and in data set [4] was no more than 50% in each case.

Turning to `N#Cc1ccc(C(=O)N2CCN(c3ccc(F)cc3)CC2)c(F)c1`, the inhibition entry in data set [1] was “inactive”. For the same molecule, the inhibition of growth at 100 µM in data set [2], in data set [3] and in data set [4] was no more than 50% in each case.

`Cc1cc(NC(=O)N2CCN(c3ccc(C#N)cc3F)CC2)on1`: in data set [1], the inhibition entry is “inactive”. The inhibition of growth at 100 µM in data set [2], in data set [3] and in data set [4] was no more than 50% throughout.

Consider `CNC(=O)c1ccc(N2C(=S)N(c3ccc(C#N)c(C(F)(F)F)c3)C(=O)C2(C)C)cc1F` [ENZALUTAMIDE], for which halving of growth in data set [17] (GI50 at 72 h) required 27.5 µM.

Turning to `N#Cc1ccc(CN2CCN(C(=O)Cn3ccc(=O)[nH]c3=O)CC2)cc1`, in data set [1], the inhibition result was “inactive”. Further, the inhibition of growth at 100 µM in data set [2], in data set [3] and in [4] was no more than 50% each time.

With `N#Cc1ccc(NC(=O)COC(=O)Cc2ccc(F)cc2)cc1Cl`, in data set [1], the inhibition entry was “inactive”. Further, the inhibition of growth at 100 µM in [2], in [3] and in data set [4] was no more than 50% in each case.
